Test results as given in publication PMC3025922 (BMC Biology, 2010).
Several values for one entry are separate records, joined by “and”; a condition that tells them apart may be missing. Identical values can stand only once. Like-named read-outs stand apart in the source and are kept apart here. Residues, ends and D or L forms follow the SMILES beside them. *: point of attachment. Cbz = O=C(OCc1ccccc1)*

Experiments:
[1] = test system: p27 protein levels in IMR90 cells; test: Immunoblot quantification of p27, IMR90; format: cell-based, human
Protocol: (§1) Total cell lysate from cells treated with vehicle (DMSO) or compounds were obtained by incubating cells in lysis buffer (25 mM Tris-HCl pH 7.4, 150 mM NaCl, 0.5% Triton X-100, protease inhibitors) for 15 min at 4°C. The supernatant was collected by centrifugation and the amount of protein was determined with a Bio-Rad protein assay (Bio-Rad) using BSA as standard. Equal amounts of protein were subjected to SDS-PAGE (4%-20% gels, Invitrogen) and transferred to PVDF membranes. The membranes were blocked with TBST (50 mM Tris-HCl pH 7.5, 150 mM NaCl, 0.05% Tween-20) containing 5% non-fat dry milk or bovine serum albumin (BSA) for 1 h at room temperature, followed by incubation in primary antibodies 4°C overnight. Membranes were washed and incubated with secondary antibodies conjugated to HRP (Jackson ImmunoResearch Laboratories) for 1 h at room temperature. Signals were visualized using the ECL Western Blotting Substrate (Pierce Biotechnology, IL, USA) according to the manufacturer's instructions. Membranes were stripped using Restore™ Western Blot Stripping Buffer (Pierce Biotechnology). Films were scanned and quantification of the bands was performed using Image J software http://rsbweb.nih.gov/ij/.

[2] = test system: p21 protein levels in IMR90 cells; test: Immunoblot quantification of p21, IMR90; format: cell-based, human
Protocol: as §1

[3] = test system: p27 protein levels in DU145 cells; test: Immunoblot quantification of p27, DU145; format: cell-based, human
Protocol: as §1

[4] = test system: p27 protein levels in HeLa cells; test: Immunoblot quantification of p27, HeLa; format: cell-based, human
Protocol: as §1

[5] = test system: p27 protein levels in LNCaP-S14 cells; test: Immunoblot quantification of p27, LNCaP-S14; format: cell-based, human
Protocol: as §1

[6] = test system: p21 protein levels in DU145 cells; test: Immunoblot quantification of p21, DU145; format: cell-based, human
Protocol: as §1

[7] = test system: p21 protein levels in PC3 cells; test: Immunoblot quantification of p21, PC3; format: cell-based, human
Protocol: as §1

[8] = test system: p21 protein levels in HeLa cells; test: Immunoblot quantification of p21, HeLa; format: cell-based, human
Protocol: as §1

[9] = test system: p27 protein levels in PC3 cells; test: Immunoblot quantification of p27, PC3; format: cell-based, human
Protocol: as §1

[10] = test system: polyubiquitylated proteins in LNCaP-S14 cells; test: Anti-ubiquitin immunoblot of total lysate; format: cell-based, human; conditions: LNCaP-S14, SMIPs 20 and 40 μM, MG132 20 μM, bortezomib 100 nM, 24 h
Protocol: as §1

[11] = test system: p27 protein levels in LNCaP cells; test: Immunoblot quantification of p27, LNCaP; format: cell-based, human
Protocol: as §1

LNCaP-S14 cells [12] = test: MTT cytotoxicity assay, LNCaP-S14; conditions: Homo sapiens, 72 h, read-out: IC50 (MTT cytotoxicity)
Protocol: (§3) LNCaP-S14 (10,000 cells), PC3, DU145 or IMR90 cells (5000 cells) were seeded in 96-well plates and treated with increasing concentrations of the respective SMIPs for 72 h. Cell viability was assessed using the MTT cell proliferation assay (ATCC®, Middlesex, UK) according to the manufacturer's protocol. IC50 was calculated using the BioDataFit 1.02 software http://www.changbioscience.com/stat/ec50.html.

[13] = MTT cytotoxicity assay, IMR90; format: cell-based; conditions: human, IMR90, 0.01 - 40 μM, 72 h
Protocol: as §3

[14] = test system: p21 protein levels in LNCaP cells; test: Immunoblot quantification of p21, LNCaP; format: cell-based, human
Protocol: as §1

LNCaP cells = test: Cell cycle analysis by flow cytometry, LNCaP; format: cell-based, human
Protocol: (§2) Cells were exposed to SMIPs (40 μM) for 24 h and 48 h. Cells were trypsinized, washed with PBS and suspended in 600 μL PBS. Cells were fixed by adding 1.4 mL cold absolute ethanol and kept at -20°C for at least 12 h. After washing once with PBS, the cells were resuspended in 250 μL PBS containing 2.5 μg RNAse A and incubated for 45 min at room temperature. Staining was done by adding 40 μg/mL of propidium iodine followed by incubation for 15 min at room temperature. DNA-bound fluorescence was read at 564 to 606 nm using FACSort and FACSCanto flow cytometers (BD Biosciences) at the Flow Cytometry Facility of the Sanford-Burnham Medical Research Institute. Distribution of cells in the different cell cycle phase was determined with ModFit LT 3.2.1 or FlowJo 8.6 software. Aggregates were excluded from the analysis manually using pulse shape or identified by automated modelling in ModFit LT.

LNCaP-S14 cells [15] = test: Cell Death Detection ELISA (cytoplasmic histone-associated DNA fragments); format: cell-based, human
Protocol: Apoptosis was measured using the Cell Death Detection ELISA (Roche, Basel, Switzerland) following the manufacturer's instructions. Briefly, LNCaP-S14 cells (0.1 × 10^6) were seeded in 12-well plates and treated with SMIPs (40 μM) for 24 h. Cells were collected in medium, spun at 1000 rpm, and resuspended in 1 mL PBS at the specified time points (day 1 to day 3). The cell suspension was divided into two parts. The first half was used for determination of cytoplasmic histone-associated DNA fragments (ELISA), the second for protein determination to normalize the ELISA data to the amount of input protein.

LNCaP-WT cells = test: MTT cytotoxicity assay, LNCaP-WT; conditions: Homo sapiens, read-out: IC50 (MTT cytotoxicity)
Protocol: as §3

PC3 cells [16] = test: Cell cycle analysis by flow cytometry, PC3; format: cell-based, human
Protocol: as §2

[17] = test system: p21 protein levels in LNCaP-S14 cells; test: Immunoblot quantification of p21, LNCaP-S14; format: cell-based, human
Protocol: as §1

[18] = test system: p27 stability in LNCaP-S14 cells; test: Protein half-life by cycloheximide chase; format: cell-based, human; conditions: human
Protocol: LNCaP-S14 cells were treated with SMIPs (40 μM) for 18 h followed by the addition of 100 μg/mL cycloheximide (CHX). Cell extracts were obtained as described above at different times after CHX addition. Protein lysate was subjected to SDS-PAGE and immunoblotting for p27, p21 and SKP2. Tubulin was used as loading control. Protein half-lives were calculated using a web based calculator http://www.1728.com/halflife.htm.

DU145 cells [19] = test: MTT cytotoxicity assay, DU145; conditions: Homo sapiens, read-out: IC50 (MTT cytotoxicity)
Protocol: as §3

[20] = test system: SKP2 levels in LNCaP-S14 cells; format: cell-based, human
PC3 cells [21] = test: MTT cytotoxicity assay, PC3; conditions: Homo sapiens, read-out: IC50 (MTT cytotoxicity)
Protocol: as §3

LNCaP-S14 cells [22] = test: Cell cycle distribution in LNCaP-S14 transfected with siRNAs for p27 and p21; format: cell-based, human
Protocol: as §2
LNCaP-S14 cells were seeded in 6 cm dishes or six-well-plates coated with poly-lysine the day before transfection. 10-20 nM of siRNA was transfected using DharmaFECT 3 (Thermo Scientific) according to the manufacturer's instructions. Briefly, siRNAs were dissolved in siRNA suspension buffer (Quiagen) at 20 μM, heated to 90°C for 1 min and incubated at 37°C for 1 h. siRNAs were added to the DharmaFECT 3 reagent diluted in Optimem media (1:100) and incubated for 20 min at room temperature. The mix was added to the cells for 24 h. Treatment with SMIPs (40 μM) or vehicle was carried on for another 24 h. Cells were obtained for FACS or lysed for immunoblotting analysis as described above. Untransfected cells as well as cells transfected with non-specific siRNA were used as controls. Silencer® Negative Control siRNA No.1 from Ambion (Applied Biosciences, CA, USA) was used as non-specific control siRNA. siRNA target sequences for p27 and p21 synthesized by IDT (Integrated DNA Technologies Inc, Iowa, USA) were as follows; p27 siRNA: […], and p21 siRNA: […] [56].

IMR90 cells = test: Cell cycle analysis by flow cytometry, IMR90; format: cell-based, human
Protocol: as §2

LNCaP-S14 cells [23] = test: Cell cycle analysis by flow cytometry, LNCaP-S14; format: cell-based, human
Protocol: as §2

DU145 cells [24] = test: Cell cycle analysis by flow cytometry, DU145; format: cell-based, human
Protocol: as §2

[25] = IMR90, 24 h, SMIPs 40 μM, MG132 20 μM, bortezomib 100 nM
[26] = DU145, 24 h, SMIPs 40 μM, MG132 20 μM, bortezomib 100 nM
[27] = HeLa, 24 h, SMIPs 40 μM, MG132 20 μM, bortezomib 100 nM
[28] = LNCaP-S14, 24 h, SMIPs 40 μM, MG132 20 μM, bortezomib 100 nM
[29] = PC3, 24 h, SMIPs 40 μM, MG132 20 μM, bortezomib 100 nM
[30] = LNCaP, 24 h, SMIPs 40 μM, MG132 20 μM, bortezomib 100 nM

## CC(C)C[C@H](NC(=O)[C@H](Cc1ccccc1)NC(=O)c1cnccn1)B(O)O [Bortezomib, reference compound]
[1]; [25]
  p27 protein level (immunoblot, DMSO = 1.0): 1.8 ± 0.0
[2]; [25]
  p21 protein level (immunoblot, DMSO = 1.0): 1.8 ± 0.4
[3]; [26]
  p27 protein level (immunoblot, DMSO = 1.0): 1.7 ± 0.5
[4]; [27]
  p27 protein level (immunoblot, DMSO = 1.0): 1.3 ± 0.2
[5]; [28]
  p27 protein level (immunoblot, DMSO = 1.0): 1.8
[6]; [26]
  p21 protein level (immunoblot, DMSO = 1.0): 2.5 ± 0.4
[7]; [29]
  p21 protein level (immunoblot, DMSO = 1.0): 4.7 ± 1.4
[8]; [27]
  p21 protein level (immunoblot, DMSO = 1.0): 2.2 ± 0.8
[9]; [29]
  p27 protein level (immunoblot, DMSO = 1.0): 2.5 ± 1.0
[10]
  accumulation of polyubiquitylated proteins: readily seen
[11]; [30]
  p27 protein level (immunoblot, DMSO = 1.0): 2.1

## CC(C)C[C@@H](C=O)NC(=O)[C@H](CC(C)C)NC(=O)[C@H](CC(C)C)NC(=O)OCc1ccccc1 [MG132, reference compound] (Cbz-Leu-Leu-Leu-aldehyde)
[1]; [25]
  p27 protein level (immunoblot, DMSO = 1.0): 0.9 ± 0.5
LNCaP-S14 cells [12]
  IC50: 379 nM
[13]
  IC50: 445 nM
[14]; LNCaP, 24 h, SMIPs 40 μM, MG132 20 μM
  p21 protein level (immunoblot, DMSO = 1.0): 2.9
[3]; [26]
  p27 protein level (immunoblot, DMSO = 1.0): 2.4 ± 0.1
[4]; [27]
  p27 protein level (immunoblot, DMSO = 1.0): 2.2 ± 0.9
[5]; [28]
  p27 protein level (immunoblot, DMSO = 1.0): 1.5
[6]; [26]
  p21 protein level (immunoblot, DMSO = 1.0): 3.1
[7]; [29]
  p21 protein level (immunoblot, DMSO = 1.0): 4.1 ± 0.4
[8]; [27]
  p21 protein level (immunoblot, DMSO = 1.0): 5.9 ± 1.7
[9]; [29]
  p27 protein level (immunoblot, DMSO = 1.0): 2.0 ± 1.0
[10]
  accumulation of polyubiquitylated proteins: readily seen
[11]; [30]
  p27 protein level (immunoblot, DMSO = 1.0): 1.9 ± 0.1

## CCCCc1ccc(NC(C)=O)c(C)c1 [SMIP004]
LNCaP cells
  Cell cycle distribution G1: 81.7 and 87.3
  Cell cycle distribution G2: 9.8 and 6.6
[1]
  p27 protein level (immunoblot, DMSO = 1.0): 1.2 ± 0.3
LNCaP-S14 cells [15]
  increase in the amount of mono and oligonucleosomes: three- to fivefold
LNCaP-S14 cells [12]
  IC50: 1090 nM
LNCaP-WT cells; 72 h
  IC50: 40000 nM
LNCaP-WT cells; 96 h
  IC50: 2400 nM
PC3 cells [16]
  Cell cycle distribution G1: 58.5 and 65.8
  Cell cycle distribution G2: 25.7 and 24.3
  Cell cycle distribution S: 14.3 and 8.5
[14]
  p21 protein level (immunoblot, DMSO = 1.0): 2.7 ± 0.1
[2]
  p21 protein level (immunoblot, DMSO = 1.0): 1.1 ± 0.0
[17]
  p21 protein level (immunoblot, DMSO = 1.0): 2.8 ± 0.7
[3]
  p27 protein level (immunoblot, DMSO = 1.0): 1.3 ± 0.1
[4]
  p27 protein level (immunoblot, DMSO = 1.0): 1.1 ± 0.2
[5]
  p27 accumulation by immunoblotting: ~ threefold
  p27 protein level (immunoblot, DMSO = 1.0): 2.4 ± 0.7
[18]
  p27 half-life: > 6 h
DU145 cells [19]; DU-145, 72 h
  IC50: > 80000 nM
DU145 cells [19]; DU-145, 96 h
  IC50: > 80000 nM
[6]
  p21 protein level (immunoblot, DMSO = 1.0): 1.7 ± 0.5
[20]
  SKP2 levels (endogenous and exogenous) by immunoblotting: decrease
[7]
  p21 protein level (immunoblot, DMSO = 1.0): 1.7 ± 0.9
PC3 cells [21]; PC-3, 72 h
  IC50: > 80000 nM
PC3 cells [21]; PC-3, 96 h
  IC50: > 80000 nM
[8]
  p21 protein level (immunoblot, DMSO = 1.0): 1.1 ± 0.1
[9]
  p27 protein level (immunoblot, DMSO = 1.0): 1.1 ± 0.3
LNCaP-S14 cells [22]
  % G1: 66.92% and 62.86% and 69.79% and 66.56%
  % G2: 13.34% and 17.13% and 13.32% and 15.94%
  % S: 19.75% and 20.02% and 16.90% and 17.50%
IMR90 cells
  Cell cycle distribution G1: 68.6 and 77.6
  Cell cycle distribution G2: 13.2 and 10.9
  Cell cycle distribution S: 18.2 and 11.5
[11]
  p27 protein level (immunoblot, DMSO = 1.0): 2.1 ± 1.1
LNCaP-S14 cells [23]
  Cell cycle distribution G1: 72.3 and 75.8
  Cell cycle distribution G2: 7.1 and 6.4
  Cell cycle distribution S: 19.1 and 14.7
DU145 cells [24]
  Cell cycle distribution G1: 75.7 and 79.7
  Cell cycle distribution G2: 8.0 and 10.4
  Cell cycle distribution S: 14.1 and 9.0
